Data reported in US7332506B2, “Substituted-3-indolyl-4-piperidino-alkyl heterocycles for the treatment of depression” (Wyeth, priority 2002, dated 2008).
Like-named read-outs stand apart in the source and are kept apart here.

What was measured:
human 5-HT1A receptors = target: T1, human 5-HT1A receptors (Homo sapiens, UniProt P08908); test: [3H] 8-OH-DPAT displacement from the 5-HT1A serotonin receptor (CHO cells); format: binding; details: for inhibition at 1 µM: @ 1000 nM, printed in the 5-HT1A Ki column
T1 construct: expressed in transfected cells; host or cells: CHO cells
T1 sequence (P08908 1-422): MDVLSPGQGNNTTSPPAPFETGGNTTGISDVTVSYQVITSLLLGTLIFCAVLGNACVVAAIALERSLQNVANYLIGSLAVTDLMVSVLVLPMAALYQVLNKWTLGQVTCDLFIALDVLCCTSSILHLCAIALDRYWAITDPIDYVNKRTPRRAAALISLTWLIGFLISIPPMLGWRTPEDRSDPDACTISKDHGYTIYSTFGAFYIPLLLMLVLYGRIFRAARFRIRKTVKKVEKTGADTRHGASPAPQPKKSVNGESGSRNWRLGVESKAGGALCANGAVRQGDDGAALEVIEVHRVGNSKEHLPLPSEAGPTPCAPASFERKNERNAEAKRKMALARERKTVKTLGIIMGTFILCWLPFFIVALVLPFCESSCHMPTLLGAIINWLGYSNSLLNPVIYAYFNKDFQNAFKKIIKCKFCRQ
Description: High affinity for the serotonin 5-HT1A receptor was established by testing the claimed compound's ability to displace [^3H] 8-OH-DPAT (dipropylaminotetralin) from the 5-HT1A serotonin receptor following a modification of the procedure of Hall et al., J. Neurochem. 44, 1685 (1985) which utilizes CHO cells stably transfected with human 5-HT1A receptors.

5-HT transporter = target: T2, 5-HT transporter (Rattus norvegicus, UniProt P31652); test: Rat Brain 3H-Paroxetine Binding Assay (RB 5HT Transporter)
T2 construct: from tissue; host or cells: rat frontal cortex membranes (male Sprague-Dawley rats)
Method: Rat Brain ^3H-Paroxetine Binding Assay (RB 5HT Transporter):
This assay was used to determine a compound's affinity of the 5-HT transporter.
A protocol similar to that used by Cheetham et. al. (Neuropharmacol. 1993, 32, 737) was used. Briefly, frontal cortical membranes prepared from male S.D. rats were incubated with ^3H-parxetine (0.1 nM) for 60 min. at 25° C. All tubes also contained either vehicle, test compound (one to eight concentrations), or a saturating concentration of fluoxetine (10 μM) to define […]. All reactions are terminated by the addition of ice cold Tris buffer followed by rapid filtration using a Tom Tech filtration device to separate bound from free ^3H-paroxetine. Bound radioactivity was quantitated using a Wallac 1205 Beta Plate® counter. Nonlinear regression analysis was used to determine IC50 values which were converted to Ki values using the method of Cheng and Prusoff (Biochem. Pharmacol. 1973, 22, 3099);

Human 5-HT Transporter = target: T3, Human 5-HT Transporter (Homo sapiens, UniProt P31645); test: Inhibition of 3H-5-HT Uptake by cells Possessing the Human 5-HT Transporter (HC 5HT Transporter); format: cell-based
T3 construct: endogenous in cells; host or cells: Jar cells (human carcinoma), treated with staurosporine
Method: [Staurosporine greatly increases the expression of the 5-HT-transporter.] On the day of assay, vehicle, excess of fluoxetine, or test compound is added to various wells on the plate. All wells then receive ^3H-5-HT and are incubated at 37° C. for 5 min. The wells are then washed with ice cold 50 mM Tris HCl (pH 7.4) buffer and aspirated to remove free ^3H-5-HT. 25 μl of 0.25 M NaOH is then added to each well to lyse the cells and 75 μl scintillation cocktail (Microscint™ 20) added prior to quantitation on a Packard TopCount machine. Tubes with vehicle represent total possible uptake, radioactivity counted in tubes with fluoxetine represent nonspecific binding/uptake and is subtracted from the total possible uptake to give total possible specific uptake. This nonspecific binding (usual low in number) is then subtracted from the counts obtained in wells with various test compounds (or different concentrations of test drug) to give specific uptake in the presence of drug. Specific uptake is then expressed as a % of control values and is analyzed using nonlinear regression analysis (Prizm) to determine IC50 values. If the compound is active at inhibiting 5-HT uptake, its counts will be close to that obtained with fluoxetine.

[1] = [3H] 8-OH-DPAT displacement, CHO cells with human 5-HT1A receptors, read-out: 5-HT1A Ki
[2] = rat frontal cortical membranes, 3H-paroxetine, read-out: RB 5HT Transporter Ki
[3] = Jar cells, 3H-5-HT uptake, read-out: HC 5HT Transporter IC50

T3 sequence (P31645 whole entry): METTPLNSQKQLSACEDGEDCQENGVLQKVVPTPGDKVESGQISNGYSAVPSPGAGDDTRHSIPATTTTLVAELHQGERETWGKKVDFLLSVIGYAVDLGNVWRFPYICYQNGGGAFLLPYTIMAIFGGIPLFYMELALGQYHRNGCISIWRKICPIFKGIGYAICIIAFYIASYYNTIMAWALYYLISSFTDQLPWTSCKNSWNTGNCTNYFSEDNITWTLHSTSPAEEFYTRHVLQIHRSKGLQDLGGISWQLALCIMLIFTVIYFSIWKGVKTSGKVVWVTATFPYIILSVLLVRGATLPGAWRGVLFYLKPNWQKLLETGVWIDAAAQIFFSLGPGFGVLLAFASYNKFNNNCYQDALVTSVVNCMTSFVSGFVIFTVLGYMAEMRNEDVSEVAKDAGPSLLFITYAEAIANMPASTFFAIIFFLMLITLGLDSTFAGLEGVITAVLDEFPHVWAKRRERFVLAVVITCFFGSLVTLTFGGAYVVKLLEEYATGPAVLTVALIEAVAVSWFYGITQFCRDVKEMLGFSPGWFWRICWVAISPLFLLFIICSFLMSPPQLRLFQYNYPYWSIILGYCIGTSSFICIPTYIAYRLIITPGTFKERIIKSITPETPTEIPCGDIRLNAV
T2 sequence (P31652 whole entry): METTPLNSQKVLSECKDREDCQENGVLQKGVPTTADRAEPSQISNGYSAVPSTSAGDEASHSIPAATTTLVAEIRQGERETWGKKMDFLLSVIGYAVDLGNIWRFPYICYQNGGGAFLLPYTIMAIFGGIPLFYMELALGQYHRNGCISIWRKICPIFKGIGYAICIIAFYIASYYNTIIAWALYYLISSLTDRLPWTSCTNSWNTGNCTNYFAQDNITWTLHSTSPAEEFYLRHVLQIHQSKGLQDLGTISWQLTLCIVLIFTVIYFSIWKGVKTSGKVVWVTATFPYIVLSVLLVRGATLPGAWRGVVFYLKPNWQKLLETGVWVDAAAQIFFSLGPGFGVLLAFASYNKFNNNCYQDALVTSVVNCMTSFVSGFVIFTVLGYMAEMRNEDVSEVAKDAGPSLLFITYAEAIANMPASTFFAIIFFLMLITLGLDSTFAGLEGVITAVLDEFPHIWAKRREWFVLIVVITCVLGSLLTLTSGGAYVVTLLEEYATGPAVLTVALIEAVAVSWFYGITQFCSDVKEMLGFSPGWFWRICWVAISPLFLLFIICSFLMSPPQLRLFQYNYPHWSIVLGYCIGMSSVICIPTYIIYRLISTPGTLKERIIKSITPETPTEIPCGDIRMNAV

Row | Compound | melting point [°C] | Ki (human 5-HT1A receptors; [1]) [nM] | Ki (5-HT transporter; [2]) [nM] | IC50 (Human 5-HT Transporter; [3]) [nM] | inhibition at 1 µM (human 5-HT1A receptors) [%] | Ki (5-HT transporter) [nM] | further results
1 | O=c1n(CCN2CCC(c3c[nH]c4ccccc34)CC2)nc2ccccn12 [Example 25, 2-{2-[4-(1H-Indol-3-yl)-piperidin-1-yl]-ethyl}-2H-[1,2,4]triazolo[4,3-a]pyridin-3-one] | 142 |  |  |  |  |  | 
2 | O=c1c2ccccc2nnn1CCN1CC=C(c2c[nH]c3ccccc23)CC1 [Example 16, 3-[2-(4-(1H-indol-3-yl)-3,6-dihydro-1(2H)-pyridinyl)ethyl]-1,2,3-benzotriazin-4(3H)-one] |  | 56.7 | 3.52 | 37.5 |  |  | 
3 | COc1cc2ncn(CCCCN3CCC(c4c[nH]c5ccccc45)CC3)c(=O)c2cc1OC [Example 5, 3-{4-[4-(1H-indol-3-yl)-1-piperdinyl]butyl}-6,7-dimethoxy-4(3H)-quinazolinone] |  | 86.8 | 4.12 | 55.3 |  |  | 
4 | COc1cc2ncn(CCN3CCC(c4c[nH]c5ccccc45)CC3)c(=O)c2cc1OC [Example 2, 3-{2-[4-(1H-indol-3-yl)-1-piperidinyl]ethyl}-6-7-dimethoxy-4(3H)-quinazolinone] | 230 | 72.1 | 36 | 273 |  |  | 
5 | O=c1c2ccccc2nnn1CCCN1CCC(c2c[nH]c3ccccc23)CC1 [Example 20, 3-{3-[4-(1H-indol-3-yl)-1-piperidin]propyl}-1,2,3-benzotriazin-4(3H)-one] |  |  | 10 |  | 49 |  | 
6 | O=c1n(CCN2CC=C(c3c[nH]c4ccccc34)CC2)nc2ccccn12 | 170.4 |  |  |  |  |  | 
7 | Cn1cc(C2CCN(CCn3cnc4ccccc4c3=O)CC2)c2ccccc21 [Example 14, 3-{2-[4-(1-methyl-1H-indol-3-yl)-1-piperidinyl]ethyl}4-(3H)-quinazolinone] | 78 |  | 116 | 1480 | 43 |  | 
8 | COc1cc2ncn(CCN3CC=C(c4c[nH]c5ccc(F)cc45)CC3)c(=O)c2cc1OC [Example 3, 3-[2-(4-(5-fluoro-1H-indol-3-yl)-3,6-dihydro-1(2H)-pyridinyl)ethyl]-6-7-dimethoxy-4(3H)-quinazolinone] | 210 | 82.2 | 4.57 |  |  |  | 
9 | O=c1c2cc(F)ccc2ncn1CCN1CC=C(c2c[nH]c3ccccc23)CC1 [Example 15, 6-fluoro-3-{2-[4-(1H-indol-3-yl)-3,6-dihydro-1(2H)-pyridinyl]ethyl}-4(3H)-quinazolinone] | 138 |  |  | 159 | 44 | 19 | 
10 | COc1cc2ncn(CCCN3CCC(c4c[nH]c5ccccc45)CC3)c(=O)c2cc1OC [Example 7, 3-{3-(4-(1H-indol-3-yl)-1-piperidinyl]propyl}-6-7-dimethoxy-4(3H)-quinazolinone] |  | 201 | 11 | 173 |  |  | 
11 | O=c1c2cc(Cl)cc(Br)c2ncn1CCCN1CC=C(c2c[nH]c3ccccc23)CC1 [Example 9, 8-bromo-6-chloro-3-[3-(4-(1H-indol-3-yl)-3,6-dihydro-1(2H)-pyridinyl)propyl]-4(3H)-quinazolinone] | 192 |  |  |  | 4 | 0.31 | 
12 | O=c1c2ccccc2nnn1CCCN1CC=C(c2c[nH]c3ccccc23)CC1 [Example 19, 3-[3-(4-(1H-indol-3-yl)-3,6-dihydro-1(2H)-pyridinyl)propyl]-1,2,3-benzotriazin-4(3H)-one] |  | 315 |  |  |  | 0.15 | IC50 (Human 5-HT Transporter): 15.7 nM
13 | O=c1c2ccccc2ncn1CCN1CCC(c2c[nH]c3ccccc23)CC1 [Example 13, 3-{2-[4-(1H-indol-3-yl)-1-piperidinyl]ethyl}-4(3H)-quinazolinone] |  |  | 37 | 651 | 42 |  | 
14 | COc1cc2ncn(CCCCN3CC=C(c4c[nH]c5ccccc45)CC3)c(=O)c2cc1OC [Example 4, 3-[4-(4-(1H-indol-3-yl)-3,6-dihydro-1(2H)-pyridinyl)butyl]-6-7-dimethoxy-4(3H)-quinazolinone] |  | 215 |  | 132 |  | 1.25 | 
15 | O=c1n(CCCN2CCC(c3c[nH]c4ccccc34)CC2)nc2ccccn12 [Example 23, 2-{3-[4-(1H-Indol-3-yl)-piperidin-1-yl]-propyl}-2H-[1,2,4]triazolo[4,3-a]pyridin-3-one] | 111.7 |  |  |  |  |  | 
16 | O=c1n(CCCCN2CC=C(c3c[nH]c4ccccc34)CC2)nc2ccccn12 | 123.2 |  |  |  |  |  | 
17 | Cn1cc(C2=CCN(CCCn3nnc4ccccc4c3=O)CC2)c2ccccc21 [Example 21, 3-[3-(4-(1-methyl-1H-indol-3-yl)-3,6-dihydro-1(2H)-pyridinyl)propyl]-1,2,3-benzotriazin-4(3H)-one] | 70 | 631 |  |  |  | 0.56 | 
18 | COc1cc2ncn(CCCN3CC=C(c4c[nH]c5ccccc45)CC3)c(=O)c2cc1OC [Example 6, 3-[3-(4-(1H-indol-3-yl)-3,6-dihydro-1(2H)-pyridinyl)propyl]-6-7-dimethoxy-4(3H)-quinazolinone] |  | 286 |  |  |  | 0.8 | IC50 (Human 5-HT Transporter): 43.2 nM
19 | COc1cc2ncn(CCN3CC=C(c4c[nH]c5ccccc45)CC3)c(=O)c2cc1OC [Example 1, 3-[2-(4-(1H-indol-3-yl)-3,6-dihydro-1(2H)-pyridinyl)ethyl]-6-7-dimethoxy-4(3H)-quinazolinone] | 219 |  |  | 125 |  | 2.87 | Ki (human 5-HT1A receptors): 83.8 nM
20 | O=c1c2cc(Cl)ccc2ncn1CCCN1CCC(c2c[nH]c3ccccc23)CC1 [Example 11, 6-chloro-3-{3-[4-(1H-indol-3-yl)-1-piperidinyl]propyl}-4(3H)-quinazolinone] |  |  | 40 | 1910 | 26 |  | 
21 | O=c1c2cc(Cl)ccc2ncn1CCCN1CC=C(c2c[nH]c3ccccc23)CC1 [Example 10, 6-chloro-3-[3-(4-(1H-indol-3-yl)-3,6-dihydro-1(2H)-pyridinyl)propyl]-4(3H)-quinazolinone] |  |  |  | 268 | 7 | 1.14 | 
22 | Cn1cc(C2CCN(CCn3nnc4ccccc4c3=O)CC2)c2ccccc21 [Example 18, 3-{2-[4-(1-methyl-1H-indol-3-yl)-1-piperidinyl]ethyl}-1,2,3-benzotriazin-4(3H)-one] |  | 80.9 | 21 | 231 |  |  | 
23 | O=c1c2ccccc2nnn1CCN1CCC(c2c[nH]c3ccccc23)CC1 [Example 17, 3-{2-[4-(1H-indol-3-yl)-1-piperidinyl)ethyl}-1,2,3-benzotriazin-4(3H)-one] |  | 119 | 16 | 190 |  |  | 
24 | O=c1n(CCCN2CC=C(c3c[nH]c4ccccc34)CC2)nc2ccccn12 | 173.3 |  |  |  |  |  | 
25 | COc1cc2ncn(CCCN3CC=C(c4c[nH]c5ccc(F)cc45)CC3)c(=O)c2cc1OC [Example 8, 3-[3-(4-(5-fluoro-1H-indol-3-yl)-3,6-dihydro-1(2H)-pyridinyl)propyl]-6-7-dimethoxy-4(3H)-quinazolinone] | 120 |  |  |  | 31 | 1.92 | 
26 | O=c1c2ccccc2ncn1CCN1CC=C(c2c[nH]c3ccccc23)CC1 [Example 12, 3-[2-(4-(1H-indol-3-yl)-3,6-dihydro-1(2H)-pyridinyl)ethyl]-4(3H)-quinazolinone] |  | 38.2 | 5.5 | 88.1 |  |  | 
